Measurements reported in patent publication US20160158200A1, “Combinations of Hepatitis C Virus Inhibitors” (priority 2013, published 2016).

Test system: HCV genotype-1a variant with glutamine 30 changed to glutamate in the NS5A protein
Assay type: cell-based
Conditions: test compound titrated with BMS-790052 fixed at 200 nM; genotype 1a Q30E replicon
Method in brief: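 Synergy was assessed by combining several fixed amounts of an NS5A-targeting compound with a titration of the second compound of interest.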

SMILES: CC(O)C1(C(=O)N[C@H](c2ncc(-c3ccc(-c4ccc(-c5cnc([C@@H](NC(=O)C6(C(C)O)CC6)C(C)(C)C)[nH]5)cc4)cc3)[nH]2)C(C)(C)C)CC1 (single isomer, unassigned) [Compound B75]
- Fold-Synergistic 1a (Q30E): >100 fold

SMILES: CCOC(=O)NC(C)(C)C(=O)N[C@H](c1nc(-c2ccc(-c3ccc(-c4c[nH]c([C@@H](NC(=O)C(C)(C)NC(=O)OCC)C(C)(C)C)n4)cc3)cc2)c[nH]1)C(C)(C)C [Compound Q-2]
- Fold-Synergistic 1a (Q30E): >100 fold

SMILES: CC1(C)CC1C(=O)N[C@H](c1ncc(-c2ccc(-c3ccc(-c4cnc([C@@H](NC(=O)C5CC5(C)C)C(C)(C)C)[nH]4)cc3)cc2)[nH]1)C(C)(C)C (single isomer, unassigned) [Compound B79]
- Fold-Synergistic 1a (Q30E): >100 fold

SMILES: CCOC(=O)C(C)(C)C(=O)N[C@H](c1nc(-c2ccc(-c3ccc(-c4c[nH]c([C@@H](NC(=O)C(C)(C)C(=O)OCC)C(C)(C)C)n4)cc3)cc2)c[nH]1)C(C)(C)C.O=C(O)C(F)(F)F.O=C(O)C(F)(F)F [Compound W-126]
- Fold-Synergistic 1a (Q30E): >100 fold

SMILES: CC(C)(C)OC(=O)NC1(C(=O)NC(c2nc(-c3ccc(-c4ccc(-c5c[nH]c(C(NC(=O)C6(NC(=O)OC(C)(C)C)CCC(F)(F)CC6)C(C)(C)C)n5)cc4)cc3)c[nH]2)C(C)(C)C)CCC(F)(F)CC1 [Compound L-49]
- Fold-Synergistic 1a (Q30E): >100 fold

SMILES: CC(O)C(C)(C)C(=O)N[C@H](c1ncc(-c2ccc(-c3ccc(-c4cnc([C@@H](NC(=O)C(C)(C)C(C)O)C(C)(C)C)[nH]4)cc3)cc2)[nH]1)C(C)(C)C (single isomer, unassigned) [Compound B78]
- Fold-Synergistic 1a (Q30E): >100 fold

SMILES: CC(C)[C@H](NC(=O)/C=C/c1ccccc1)c1ncc(-c2ccc(-c3ccc(-c4cnc([C@@H](NC(=O)/C=C/c5ccccc5)C(C)C)[nH]4)cc3)cc2)[nH]1 [Compound S-43]
- Fold-Synergistic 1a (Q30E): >100 fold

SMILES: CC(C)[C@H](NC(=O)c1cc2ccccc2s1)c1ncc(-c2ccc(-c3ccc(-c4cnc([C@@H](NC(=O)c5cc6ccccc6s5)C(C)C)[nH]4)cc3)cc2)[nH]1 [Compound P-98]
- Fold-Synergistic 1a (Q30E): >100 fold

SMILES: CC(C)[C@H](NC(=O)[C@@H](C)c1ccccc1)c1ncc(-c2ccc(-c3ccc(-c4cnc([C@@H](NC(=O)[C@@H](C)c5ccccc5)C(C)C)[nH]4)cc3)cc2)[nH]1 [Compound P-62]
- Fold-Synergistic 1a (Q30E): >100 fold

SMILES: CCOC(C)(C)C(=O)C(=O)N[C@H](c1ncc(-c2ccc(-c3ccc(-c4cnc([C@@H](NC(=O)C(=O)C(C)(C)OCC)C(C)C)[nH]4)cc3)cc2)[nH]1)C(C)C [Compound P-117]
- Fold-Synergistic 1a (Q30E): >100 fold

SMILES: CCOC(=O)N[C@@H](C(=O)N[C@H](c1ncc(-c2ccc(-c3ccc(-c4cnc([C@@H](NC(=O)[C@H](NC(=O)OCC)C(C)C)C(C)C)[nH]4)cc3)cc2)[nH]1)C(C)C)C(C)C [Compound S-247]
- Fold-Synergistic 1a (Q30E): >100 fold

SMILES: CC(C)[C@H](NC(=O)C(O)(CF)CF)c1nc(-c2ccc(-c3ccc(-c4c[nH]c([C@@H](NC(=O)C(O)(CF)CF)C(C)C)n4)cc3)cc2)c[nH]1 [Compound N-142]
- Fold-Synergistic 1a (Q30E): >100 fold

SMILES: CC(C)[C@H](NC(=O)c1cc(F)ccc1F)c1ncc(-c2ccc(-c3ccc(-c4cnc([C@@H](NC(=O)c5cc(F)ccc5F)C(C)C)[nH]4)cc3)cc2)[nH]1 [Compound S-63]
- Fold-Synergistic 1a (Q30E): >100 fold

SMILES: COCC(NC(=O)C1(C(F)(F)F)CCC1)c1nc(-c2ccc(-c3ccc(-c4c[nH]c(C(COC)NC(=O)C5(C(F)(F)F)CCC5)n4)cc3)cc2)c[nH]1 [Compound L-104]
- Fold-Synergistic 1a (Q30E): >100 fold

SMILES: CC(C)(C)[C@H](NC(=O)C1CCCCO1)c1nc(-c2ccc(-c3ccc(-c4c[nH]c([C@@H](NC(=O)C5CCCCO5)C(C)(C)C)n4)cc3)cc2)c[nH]1 (stereo partly shown) [Compound Y-6]
- Fold-Synergistic 1a (Q30E): >100 fold

SMILES: COC(=O)N(C)C1(C(=O)N[C@H](c2ncc(C#Cc3ccc4cc(-c5cnc([C@@H](NC(=O)C6(N(C)C(=O)OC)CC6)C(C)(C)C)[nH]5)ccc4c3)[nH]2)C(C)(C)C)CC1 [Compound B5]
- Fold-Synergistic 1a (Q30E): >100 fold

SMILES: O=C(c1cccc2ccccc12)N1CCC[C@H]1c1ncc(-c2ccc(-c3ccc(-c4cnc([C@@H]5CCCN5C(=O)c5cccc6ccccc56)[nH]4)cc3)cc2)[nH]1 [Compound S-119]
- Fold-Synergistic 1a (Q30E): >10 fold

SMILES: CCCCC(=O)N[C@H](c1ncc(-c2ccc(-c3ccc(-c4cnc([C@@H](NC(=O)CCCC)C(C)C)[nH]4)cc3)cc2)[nH]1)C(C)C [Compound S-45]
- Fold-Synergistic 1a (Q30E): >100 fold

SMILES: COCC(C)(COC)C(=O)NC(c1nc(-c2ccc(-c3ccc(-c4c[nH]c(C(NC(=O)C(C)(COC)COC)C(C)(C)C)n4)cc3)cc2)c[nH]1)C(C)(C)C [Compound L-123]
- Fold-Synergistic 1a (Q30E): >100 fold

SMILES: COC(C)(C)C(=O)N[C@H](c1nc(-c2ccc(-c3ccc(-c4c[nH]c([C@@H](NC(=O)C(C)(C)OC)C(C)(C)C)n4)cc3)cc2)c[nH]1)C(C)(C)C [Compound P-13]
- Fold-Synergistic 1a (Q30E): >100 fold

SMILES: CC(C)(C)[C@H](NC(=O)CC12CC3CC(CC(C3)C1)C2)c1nc(-c2ccc(-c3ccc(-c4c[nH]c([C@@H](NC(=O)CC56CC7CC(CC(C7)C5)C6)C(C)(C)C)n4)cc3)cc2)c[nH]1 [Compound N-63]
- Fold-Synergistic 1a (Q30E): >100 fold

SMILES: COC(=O)NC(C(=O)N1CCCC1c1ncc(-c2ccc(-c3ccc(-c4cnc(C(NC(=O)C5(C)CCC(F)(F)CO5)C(C)(C)C)[nH]4)cc3)cc2)[nH]1)C(C)C (stereo not shown) [Compound B-193]
- Fold-Synergistic 1a (Q30E): >10 fold

SMILES: COC(CO)(CC(C)C)C(=O)N[C@H](c1nc(-c2ccc(-c3ccc(-c4c[nH]c([C@@H](NC(=O)C(CO)(CC(C)C)OC)C(C)(C)C)n4)cc3)cc2)c[nH]1)C(C)(C)C (single isomer, unassigned) [Compound N-160C]
- Fold-Synergistic 1a (Q30E): >100 fold

SMILES: CC(C)(Br)C(=O)N[C@H](c1nc(-c2ccc(-c3ccc(-c4c[nH]c([C@@H](NC(=O)C(C)(C)Br)C(C)(C)C)n4)cc3)cc2)c[nH]1)C(C)(C)C [Compound W-149]
- Fold-Synergistic 1a (Q30E): >100 fold

SMILES: CC(C)[C@H](NC(=O)c1coc2ccccc12)c1ncc(-c2ccc(-c3ccc(-c4cnc([C@@H](NC(=O)c5coc6ccccc56)C(C)C)[nH]4)cc3)cc2)[nH]1 [Compound P-100]
- Fold-Synergistic 1a (Q30E): >100 fold

SMILES: CC(C)(C)C(=O)NC1(C(=O)N[C@H](c2nc(-c3ccc(-c4ccc(-c5c[nH]c([C@@H](NC(=O)C6(NC(=O)C(C)(C)C)CCCCC6)C(C)(C)C)n5)cc4)cc3)c[nH]2)C(C)(C)C)CCCCC1 [Compound W-262]
- Fold-Synergistic 1a (Q30E): >100 fold

SMILES: O=C(c1cc2ccccc2o1)N1CCC[C@H]1c1ncc(-c2ccc(-c3ccc(-c4cnc([C@@H]5CCCN5C(=O)c5cc6ccccc6o5)[nH]4)cc3)cc2)[nH]1 [Compound S-122]
- Fold-Synergistic 1a (Q30E): >10 fold

SMILES: COC(=O)N1C[C@H](F)C[C@@]1(C)C(=O)N[C@H](c1nc(-c2ccc(-c3ccc(-c4c[nH]c([C@@H](NC(=O)[C@]5(C)C[C@@H](F)CN5C(=O)OC)C(C)(C)C)n4)cc3)cc2)c[nH]1)C(C)(C)C [Compound W-210]
- Fold-Synergistic 1a (Q30E): >100 fold
